Measured values reported in US20010056063A1, “METHOD OF TREATING OR PREVENTING TYPE 1 DIABETES BY ORAL ADMINISTRATION OF INSULIN” (priority 1990, published 2001).
Entries after “also recorded” stand apart in the source; their conditions may differ.

Assays:
Type in all cases: in vivo, mouse
NOD mice [1] = test: Glucose post oral insulin in fasting 7 week NOD mice (Example 2); details: for endocrinologic effect on blood glucose: oral 1 mg, over 24 hours
Experimental: In order to determine whether any endocrinologic (i.e. direct lowering of blood sugar) effects occurred following the feeding of insulin, 7 week old NOD mice (5 mice per group) were fed 1 mg of porcine insulin or 1 mg of myelin basic protein (obtained from Pel Freez, Rogers, Ark.) as a control protein. Blood glucose was then measured over the next 24 hour period. As a positive control, a separate group of animals were injected subcutaneously with 20 micrograms of Porcine insulin. All animals were kept in the fasting state.

[2] = test system: NOD (non-obese diabetic) mice; test: Spontaneous diabetes in NOD mice after oral feeding (Examples 1 and 3); details: for development of diabetes: FIG. 1
Description: NOD (non-obese diabetic mice) were obtained from Taconic Laboratories (Germantown, Mass.) at 4 weeks of age. There were a total of 30 animals in each of the groups mentioned below at the beginning of the experiment. At 4 ½ weeks of age, animals were orally administered Porcine insulin (Novo Laboratories, Danbury, Conn.). Each animal received two treatments orally twice a week until 9 weeks of age. The mice were fed either saline (control) or 10 micrograms, 100 micrograms, or 1 milligram of Porcine insulin. The animals were fed (gavaged) with an 18 gauge ball-point needle (Popper and Sons, Inc., New Hyde Park, N.Y.). Beginning at 10 weeks the animals were then fed once a week for a total of 33 weeks. Beginning at 12 weeks the urine was tested weekly for the presence of glucose using Glucosuria test tape (Eli Lilly, Indianapolis, Ind.). If an animal tested 3+or higher on the glucose urine test, a serum sample was taken and blood glucose measured using a glucose analyzer (Beckman). If the blood glucose was 220 or higher, the animals were classified as diabetic and then sacrificed. An identical experiment to Example 1 was performed in which NOD mice (14-17 per group) were fed one homogenized pancreas derived from Lewis rats in 0.5 mls PBS. […] Nonetheless, the effect is not as dramatic and complete as that seen in the animals fed insulin.

NOD mice [3] = test: Insulitis in insulin-fed NOD mice (preliminary experiments); details: fed 1 mg, vs PBS-fed NOD mice; data not shown
Description: Therefore, oral administration of insulin to NOD mice appeared to be affecting the infiltration of immune system cells into the pancreas and thus halting disease progression by preserving beta cell function.

NOD mice [4] = test: Aerosol administration of insulin on diabetes in NOD mice (Example 4); details: aerosol by nebulizer, 0 to 1 mg
Experimental: Insulin (0 to 1 mg as in Examples 1 and 2) will be administered to NOD mice as described above in Examples 1 and 2 except in aerosol form by nebulizer.

NOD mice [5] = test: Treatment of initial stages of diabetes in hyperglycemic NOD mice (Example 5); details: oral and aerosol, 0 to 1 mg, hyperglycemic NOD mice from weeks 12-20
Experimental: Insulin (0 to 1 mg as in Examples 1 and 2) will be administered to NOD mice which are suffering from hyperglycemia in an oral and aerosol form. The treatments will begin by weeks 12 -20 of age, by which the serum glucose levels are at hyperglycemic concentrations in a certain percentage of animals prior to onset of diabetes.

myelin basic protein
endocrinologic effect on blood glucose (NOD mice [1]; FIG. 2): no drop in the blood glucose

Porcine insulin
treated animals that failed to develop diabetes ([2]; oral 1 mg (highest dose)): 100% | development of diabetes ([2]; oral 1 mg, twice a week until 9 weeks of age, then once a week): none of the mice went on to develop diabetes; also recorded: no diabetes developed; also recorded: None of the animals developed diabetes | development of diabetes ([2]; oral 10 microgram group, dose response fashion): diabetes developed | development of diabetes ([2]; oral 100 microgram group, dose response fashion): diabetes developed | incidence / development of diabetes ([2]; oral, all doses tested (10 micrograms, 100 micrograms, 1 mg)): lower incidence of diabetes at all doses; also recorded: reduced the numbers of these mice which subsequently went on to develop diabetes | endocrinologic effect on blood glucose (NOD mice [1]; FIG. 2): no drop in the blood glucose; also recorded: no endocrinologic (metabolic) effects | period over which the glucose decrease persisted (NOD mice [1]; subcutaneous 20 micrograms): 4 h | decrease in blood glucose level (NOD mice [1]; subcutaneous 20 micrograms, FIG. 2): approximately 80 mg % | inflammatory immune system cells surrounding the pancreas (insulitis) (NOD mice [3]): fewer inflammatory immune system cells surrounding the pancreas | prevention of symptoms (hyperglycemia) of Type 1 diabetes (NOD mice [4]): effective in preventing the manifestation of symptoms | beta cell function (NOD mice [5]): preservation of beta cell function | serum glucose concentrations (NOD mice [5]): reduction in serum glucose concentrations to near normal levels
